# In US20200024278A1, “COMPOSITION COMPRISING ANTIBIOTIC COMPOUND AND AN HETEROCYCLIC COMPOUND AND THEIR USE IN PREVENTING OR TREATING BACTERIAL INFECTIONS” (MUTABILIS, priority 2016, published 2020):
# Tests used:
# Experiment in all cases: Fractional Inhibitory Concentration Index, checkerboard assay
# ECO 190317 = type: cell-based, E. coli
# Procedure: (§1) Method 2: Determination of the Fractional Inhibitory Concentration Index
# (§2) Serial 2-fold dilutions of each antibiotic tested were prepared in ca-MHB and mixed in each well of a 96-well microtiter plate so that each row (and column) contained a fixed amount of one agent and increasing amounts of the second agent. The range of drug concentrations used in the checkerboard analysis was such that the dilution range encompassed the MIC for each drug used in the analysis. Broth microdilution plates were inoculated with each strain (Table 3) to yield 5.10^5 CFU/mL in a 100 μL final volume and incubated for 18 h at 35° C. in ambient air. Assays including Fosfomycin were supplemented with 25 μg/ml of Glucose-6-phosphate. MICs were determined after overnight incubation, and the fractional inhibitory concentration (FIC) index was calculated for each well. The FIC index (FICI) was calculated for each combination according to the equation FICI=FICa+FICb=(MIC of drug A in combination/MIC of drug A alone)+(MIC of drug B in combination/MIC of drug B alone). The FICI was interpreted as follows: synergy, FICI […]; indifference, 0.5<FIC<4; and antagonism, FICI>4. The checkerboard assays were performed in duplicate.
# KPN UFR68 = type: cell-based, K. pneumoniae
# Procedure: as §1, §2
# ECL P99 = type: cell-based, E. cloacae
# Procedure: as §1, §2
# PAE UFR90 = type: cell-based, P. aeruginosa
# Procedure: as §1, §2
# PAE UFR48 = type: cell-based, P. aeruginosa
# Procedure: as §1, §2
smiles,measurement,setting,value
"NC[C@@H]1CC(=NOCC(N)=O)[C@@H]2CN1C(=O)N2OS(=O)(=O)[O-].O=C(O)C(F)(F)F.[Na+] [Example 4, 2,2,2-trifluroacetate and sodium [(2S,5S)-4-(2-amino-2-oxo-ethoxy)imino-2-(azaniumylmethyl)-7-oxo-1,6-diazabicyclo[3.2.1]octan-6-yl] sulfate]",FIC index min,ECO 190317; compound +ATM,0.57
same,FIC index min,ECO 190317; compound +FEP,0.31
same,FIC index min,ECO 190317; compound +FOS,0.53
same,FIC index min,ECO 190317; compound +MEM,0.87
same,FIC index min,ECO 190317; compound +PIP,≤0.74
same,FIC index min,KPN UFR68; compound +ATM,≤0.023
same,FIC index min,KPN UFR68; compound +FEP,≤0.006
same,FIC index min,KPN UFR68; compound +FOS,≤0.035
same,FIC index min,KPN UFR68; compound +MEM,≤0.023
same,FIC index min,KPN UFR68; compound +PIP,≤0.063
same,FIC index min,ECL P99; compound +ATM,0.63
same,FIC index min,ECL P99; compound +FEP,0.44
same,FIC index min,ECL P99; compound +FOS,≤0.25
same,FIC index min,ECL P99; compound +MEM,0.44
same,FIC index min,ECL P99; compound +PIP,0.56
same,FIC index min,PAE UFR90; compound +ATM,0.53
same,FIC index min,PAE UFR90; compound +FEP,0.63
same,FIC index min,PAE UFR90; compound +FOS,0.63
same,FIC index min,PAE UFR90; compound +MEM,1.0
same,FIC index min,PAE UFR90; compound +PIP,0.75
same,FIC index min,PAE UFR48; compound +ATM,0.50
same,FIC index min,PAE UFR48; compound +FEP,0.63
same,FIC index min,PAE UFR48; compound +FOS,1.20
same,FIC index min,PAE UFR48; compound +MEM,0.63
same,FIC index min,PAE UFR48; compound +PIP,0.44
